{"source": "patent US20050054586A1", "about": "“Treatment of ophthalmic disorders” (priority 2003, published 2005)", "format_in_all_cases": "in vivo", "key": {"[1]": {"tested_on": "human patients with type-1 diabetes and affected by non-proliferative diabetic retinopathy", "assay": "Clinical study: overall progression of retinal damage", "conditions": "one tablet daily, 100 mg; one-year study period; versus untreated controls", "experimental": "A clinical study was conducted in order to test the safety and efficacy of the compounds for treating ophthalmic disorders. The study included 40 human patients with type-1 diabetes and affected by non-proliferative diabetic retinopathy. Twenty of the patients received one tablet daily containing cloricromene hydrochloride (100 mg), whereas twenty of the patients formed a control group and received no treatment. Patients were randomly assigned either to receive cloricromene or to receive no treatment. The patients included males and females over 45 years of age assessed with type-1 diabetes mellitus and non-proliferative retinopathy assessed by fundus photography and fluoroscein angiography. For patients with bilateral disease, both eyes were evaluated. For patients with unilateral disease, the affected eye served as the study eye. […]\n(§1) The results summarized in the following tables are based on start of study versus one-year study period. Visual acuity was assessed by the patients' use of an eye chart. The presence of hemorrhaging, hard exudates or vascular leakage in the retina was evaluated as a means of grading degree of retinal lesion. Hemorrhaging and hard exudates were assessed primarily by observing the stereoscopic color fundus photographs of the retain. Vascular leakage was assessed primarily by fluorescein staining."}, "[2]": {"tested_on": "human patients with type-1 diabetes and affected by non-proliferative diabetic retinopathy", "assay": "Clinical study: retinal vascular leakage (fluorescein staining)", "conditions": "one tablet daily, 100 mg cloricromene hydrochloride; start of study versus one-year; 20 patients", "experimental": "(§2) A clinical study was conducted in order to test the safety and efficacy of the compounds for treating ophthalmic disorders. The study included 40 human patients with type-1 diabetes and affected by non-proliferative diabetic retinopathy. Twenty of the patients received one tablet daily containing cloricromene hydrochloride (100 mg), whereas twenty of the patients formed a control group and received no treatment. Patients were randomly assigned either to receive cloricromene or to receive no treatment. The patients included males and females over 45 years of age assessed with type-1 diabetes mellitus and non-proliferative retinopathy assessed by fundus photography and fluoroscein angiography. For patients with bilateral disease, both eyes were evaluated. For patients with unilateral disease, the affected eye served as the study eye. Excluded from the study were subjects: affected with proliferative diabetic retinopathy; having visual acuity less than 2/10; with a history of renal failure; or receiving treatment with anti-coagulants, platelet anti-aggregants, or fibrinolytics.\nas §1"}, "[3]": {"tested_on": "human patients with type-1 diabetes and affected by non-proliferative diabetic retinopathy", "assay": "Clinical study: hard exudates in the retina (stereoscopic color fundus photographs)", "conditions": "one tablet daily, 100 mg cloricromene hydrochloride; start of study versus one-year; 20 patients", "experimental": "as §2, §1"}, "[4]": {"tested_on": "human patients with type-1 diabetes and affected by non-proliferative diabetic retinopathy", "assay": "Clinical study: visual acuity assessed by eye chart", "conditions": "one tablet daily, 100 mg cloricromene hydrochloride; start of study versus one-year; 20 patients", "experimental": "as §2, §1"}, "[5]": {"tested_on": "human patients with type-1 diabetes and affected by non-proliferative diabetic retinopathy", "assay": "Clinical study: retinal hemorrhages (stereoscopic color fundus photographs)", "conditions": "one tablet daily, 100 mg cloricromene hydrochloride; start of study versus one-year; 20 patients", "experimental": "as §2, §1"}}, "data": [{"smiles": "CCOC(=O)COc1ccc2c(C)c(CCN(CC)CC)c(=O)oc2c1Cl", "note": "[Cloricromene, cloricromene]", "values": [{"measurement": "progression of retinal damage in diabetic patients", "setting": "[1]", "value": "effective in delaying the progression of retinal damage"}, {"measurement": "Vascular Leakage: Improved, number of patients (%)", "setting": "[2]", "value": "3 (15%)"}, {"measurement": "Vascular Leakage: Stable, number of patients (%)", "setting": "[2]", "value": "16 (80%)"}, {"measurement": "Vascular Leakage: Worse, number of patients (%)", "setting": "[2]", "value": "1 (5%)"}, {"measurement": "Hard Exudates: Improved, number of patients (%)", "setting": "[3]", "value": "14 (70%)"}, {"measurement": "Hard Exudates: Stable, number of patients (%)", "setting": "[3]", "value": "6 (30%)"}, {"measurement": "Hard Exudates: Worse, number of patients (%)", "setting": "[3]", "value": "0 (0%)"}, {"measurement": "Visual Acuity: Improved, number of patients (%)", "setting": "[4]", "value": "11 (55%)"}, {"measurement": "Visual Acuity: Stable, number of patients (%)", "setting": "[4]", "value": "8 (40%)"}, {"measurement": "Visual Acuity: Worse, number of patients (%)", "setting": "[4]", "value": "1 (5%)"}, {"measurement": "Retinal Hemorrhages: Improved, number of patients (%)", "setting": "[5]", "value": "13 (65%)"}, {"measurement": "Retinal Hemorrhages: Stable, number of patients (%)", "setting": "[5]", "value": "6 (30%)"}, {"measurement": "Retinal Hemorrhages: Worse, number of patients (%)", "setting": "[5]", "value": "1 (5%)"}]}]}
